How the values were obtained:
[1] = system: V. pensylvanica; assay: Field trapping Experiment 2, DMNT dose-response with W•H•Y top attractants; type: in vivo, Vespula pensylvanica; settings: Exp 2, DMNT added to WHY top attractant
Description: (§1) Three field trapping experiments were carried out during late July to early August 2009, in residential and woody areas around Spokane, Wash., USA, using the newly marketed Rescue® W•H•Y traps (www.rescue.com). As used herein, the W•H•Y trap is a trap in accordance with the description of United States Patent Application Publication No. 2009/0151228. The W•H•Y trap has a top chamber and a bottom chamber. The top chamber is baited with two attractants—one of which is a solid contained in a vial (2-methyl-1-butanol) and the other a liquid mixed with water (acetic acid), herein referred to as the W•H•Y top attractant. The bottom chamber is baited with a liquid attractant (heptyl butyrate) poured onto a cotton pad, herein referred to as the W•H•Y bottom attractant. Separation of the top and bottom attractants (otherwise antagonistic to each other when released from the same chamber) in two chambers was a design feature of this trap and creates two focal attraction sources from one trap for different species of wasps, hornets, and yellowjackets. Traps were hung 1.5-2.0 m above the ground on either the fence or tree branches ca. 5 m apart within each trap line. For each trapping experiment, six sets of traps were deployed with their initial trap positions within each set being randomized. To minimize positional effects and obtain more replications, wasp collections and trap re-randomization were carried out when ≧10-20 wasps were caught in the best trap. Each replicate lasted several days depending on wasp flight activity. Captured wasps were removed from the traps and kept in the zip-bags before taking back to the laboratory for recording of the species, gender status, and catch.
(§2) Experiment 3 (Aug. 5-13, 2009) was conducted to determine the potential behavioral activity of different doses of (E)-4,8-dimethyl-1,3,7-nonatriene alone. The individual (or different doses) HIPVs were loaded into either polyethylene bags or centrifuge tube type of dispensers, and released from the top of the W•H•Y trap chamber. W•H•Y trap attractants (both top and bottom or top only) alone and water (top chamber only) were included in the test as positive and blank controls, respectively. The dispenser types, loading and release rates of the tested semiochemicals are described in Tables 1, 2 and 3.
(§3) Trap catch data were converted to proportion (P) of total captured wasps within each replicate. Data were then transformed by arcsin√P to meet the assumptions of normality and homogeneity of variances for ANOVA. Means were compared by ANOVA followed by the Ryan-Einot-Gabriel-Welsh (REGW) multiple Q test (SPSS 16.0 for Windows) at α=0.05.

[2] = system: V. vulgaris; assay: as above; type: in vivo, Vespula vulgaris; settings: Exp 2, DMNT added to WHY top attractant
Description: as §1, §2, §3

[3] = system: V. atropilosa; assay: as above; type: in vivo, Vespula atropilosa; settings: Exp 2, DMNT added to WHY top attractant
Description: as §1, §2, §3

[4] = system: P. aurifer; assay: as above; type: in vivo, Polistes aurifer; settings: Exp 2, DMNT added to WHY top attractant
Description: as §1, §2, §3

[5] = system: V. atropilosa; assay: Field trapping Experiment 3, different doses of DMNT alone; type: in vivo, Vespula atropilosa
Description: as §1, §2, §3

[6] = system: V. pensylvanica; assay: as above; type: in vivo, Vespula pensylvanica
Description: as §1, §2, §3

[7] = system: V. vulgaris; assay: as above; type: in vivo, Vespula vulgaris
Description: as §1, §2, §3

[8] = system: V. acadica; assay: as above; type: in vivo, Vespula acadica
Description: as §1, §2, §3

[9] = system: V. germanica; assay: as above; type: in vivo, Vespula germanica
Description: as §1, §2, §3

[10] = system: P. dominulus; assay: as above; type: in vivo, Polistes dominulus
Description: as §1, §2, §3

[11] = system: P. aurifer; assay: as above; type: in vivo, Polistes aurifer
Description: as §1, §2, §3

[12] = system: yellowjackets; assay: Field trapping Experiment 1, top chamber catches; type: in vivo; settings: Exp 1; HIPV combined with W•H•Y attractant (acetic acid and 2-methyl-1-butanol) in the top chamber
Description: as §1
Experiment 3 (Aug. 5-13, 2009) was conducted to determine the potential behavioral activity of different doses of (E)-4,8-dimethyl-1,3,7-nonatriene alone. The individual (or different doses) HIPVs were loaded into either polyethylene bags or centrifuge tube type of dispensers, and released from the top of the W•H•Y trap chamber. […]

[13] = system: paper wasps; assay: Field trapping Experiment 1, top chamber catches; type: in vivo, P. dominulus and P. aurifer; settings: Exp 1; HIPV combined with W•H•Y attractant (acetic acid and 2-methyl-1-butanol) in the top chamber
Description: as §1, with “To minimize positional effects and obtain more replications, wasp collections and trap re-randomization were carried out when ≧10-20 wasps were caught in the best trap. Each replicate lasted several days depending on wasp flight activity. Captured wasps were removed from the traps and kept in the zip-bags before taking back to the laboratory for recording of the species, gender status, and catch.” left out

[14] = system: paper wasps, yellowjackets, or hornets; assay: Field trapping Experiment 3, DMNT alone; type: in vivo; settings: Exp 3, different doses alone, without any W•H•Y attractants
Description: as §1, with “To minimize positional effects and obtain more replications, wasp collections and trap re-randomization were carried out when ≧10-20 wasps were caught in the best trap. Each replicate lasted several days depending on wasp flight activity. Captured wasps were removed from the traps and kept in the zip-bags before taking back to the laboratory for recording of the species, gender status, and catch.” left out

[15] = release rate 0.25, hole 0.5 mm, loading 15 μL
[16] = release rate 0.5, hole 1 mm, loading 30 μL
[17] = release rate 1, hole 2 mm, loading 75 μL
[18] = release rate 1.5, hole 3 mm, loading 175 μL
[19] = release rate 2, hole 5.5 mm, loading 325 μL
[20] = Exp 3, release rate 0.25, hole 0.5 mm, loading 15 μL
[21] = Exp 3, release rate 0.5, hole 1 mm, loading 30 μL
[22] = Exp 3, release rate 1, hole 2 mm, loading 75 μL
[23] = Exp 3, release rate 1.5, hole 3 mm, loading 175 μL
[24] = Exp 3, release rate 2, hole 5.5 mm, loading 325 μL

C=C/C=C(\C)CCC=C(C)C [(E)-4,8-dimethyl-1,3,7-nonatriene]
Total Yellowjackets Caught V. pensylvanica [1, 15]: 68 | Total Yellowjackets Caught V. pensylvanica [1, 16]: 90 | Total Yellowjackets Caught V. pensylvanica [1, 17]: 47 | Total Yellowjackets Caught V. pensylvanica [1, 18]: 77 | Total Yellowjackets Caught V. pensylvanica [1, 19]: 46 | Total Yellowjackets Caught V. vulgaris [2, 15]: 8 | Total Yellowjackets Caught V. vulgaris [2, 16]: 8 | Total Yellowjackets Caught V. vulgaris [2, 17]: 5 | Total Yellowjackets Caught V. vulgaris [2, 18]: 5 | Total Yellowjackets Caught V. vulgaris [2, 19]: 1 | Total Yellowjackets Caught V. atropilosa [3, 15]: 0 | Total Yellowjackets Caught V. atropilosa [3, 16]: 0 | Total Yellowjackets Caught V. atropilosa [3, 17]: 0 | Total Yellowjackets Caught V. atropilosa [3, 18]: 0 | Total Yellowjackets Caught V. atropilosa [3, 19]: 1 | Total Paper Wasps Caught P. aurifer [4, 15]: 0 | Total Paper Wasps Caught P. aurifer [4, 16]: 0 | Total Paper Wasps Caught P. aurifer [4, 17]: 0 | Total Paper Wasps Caught P. aurifer [4, 18]: 0 | Total Paper Wasps Caught P. aurifer [4, 19]: 0 | Total Yellowjackets Caught V. atropilosa [5, 20]: 2 | Total Yellowjackets Caught V. atropilosa [5, 21]: 1 | Total Yellowjackets Caught V. atropilosa [5, 22]: 0 | Total Yellowjackets Caught V. atropilosa [5, 23]: 0 | Total Yellowjackets Caught V. atropilosa [5, 24]: 1 | Total Yellowjackets Caught V. pensylvanica [6, 20]: 43 | Total Yellowjackets Caught V. pensylvanica [6, 21]: 12 | Total Yellowjackets Caught V. pensylvanica [6, 22]: 34 | Total Yellowjackets Caught V. pensylvanica [6, 23]: 24 | Total Yellowjackets Caught V. pensylvanica [6, 24]: 24 | Total Yellowjackets Caught V. vulgaris [7, 20]: 4 | Total Yellowjackets Caught V. vulgaris [7, 21]: 6 | Total Yellowjackets Caught V. vulgaris [7, 22]: 4 | Total Yellowjackets Caught V. vulgaris [7, 23]: 2 | Total Yellowjackets Caught V. vulgaris [7, 24]: 5 | Total Yellowjackets Caught V. acadica [8, 20]: 0 | Total Yellowjackets Caught V. acadica [8, 21]: 0 | Total Yellowjackets Caught V. acadica [8, 22]: 0 | Total Yellowjackets Caught V. acadica [8, 23]: 0 | Total Yellowjackets Caught V. acadica [8, 24]: 0 | Total Yellowjackets Caught V. germanica [9, 20]: 0 | Total Yellowjackets Caught V. germanica [9, 21]: 0 | Total Yellowjackets Caught V. germanica [9, 22]: 0 | Total Yellowjackets Caught V. germanica [9, 23]: 0 | Total Yellowjackets Caught V. germanica [9, 24]: 0 | Total Paper Wasps Caught P. dominulus [10, 20]: 7 | Total Paper Wasps Caught P. dominulus [10, 21]: 6 | Total Paper Wasps Caught P. dominulus [10, 22]: 4 | Total Paper Wasps Caught P. dominulus [10, 23]: 17 | Total Paper Wasps Caught P. dominulus [10, 24]: 10 | Total Paper Wasps Caught P. aurifer [11, 20]: 3 | Total Paper Wasps Caught P. aurifer [11, 21]: 1 | Total Paper Wasps Caught P. aurifer [11, 22]: 0 | Total Paper Wasps Caught P. aurifer [11, 23]: 5 | Total Paper Wasps Caught P. aurifer [11, 24]: 0 | effect on trap catches of yellowjackets in the top chambers [12]: significantly increased | effect on trap catches of paper wasps in the top chambers [13]: significantly increased | attraction alone versus water blank control traps [14]: not different | attraction alone versus water blank control traps ([14]; listed as DMNT): not significantly attractive

From patent US20110165115A1, “SYNERGISTIC ATTRACTANTS FOR PESTIFEROUS SOCIAL INSECTS” (STERLING INTERNATIONAL INC., priority 2010, published 2011)
